Results taken from patent US10611740B2, “Aryl dihydro-2H-benzo[b][1,4]oxazine sulfonamide and related compounds for use as agonists of RORγ and the treatment of disease” (Lycera Corporation, priority 2015, dated 2020).

Columns and labels:
RORγ-LBD = molecular target: T1, RORγ-LBD (Homo sapiens, UniProt P51449); test: RORγ-Ligand Binding Domain (LBD) TR-FRET Assay; format: biochemical;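 on TR-FRET Assay Max Response: 665/615 nm ratio relative to signal without ursolic acid or compound set at 100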
T1 construct: made in house; host or cells: SF9 cells (baculovirus)
T1 sequence (P51449 269-508 limits assumed): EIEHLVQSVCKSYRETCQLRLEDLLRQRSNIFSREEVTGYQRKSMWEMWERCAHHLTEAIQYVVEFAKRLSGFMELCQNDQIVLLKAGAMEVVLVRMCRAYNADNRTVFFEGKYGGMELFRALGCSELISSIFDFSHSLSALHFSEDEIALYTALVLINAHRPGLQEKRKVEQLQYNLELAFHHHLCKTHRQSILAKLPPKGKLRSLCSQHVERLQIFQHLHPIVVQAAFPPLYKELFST
Outline: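 This TR-FRET coactivator assay pairs baculovirus-expressed His-RORγ-LBD (~3 nM final) with biotin-SRC1 LXXLL peptide at 200 nM final in pH 7.0 Tris/KCl/EDTA/DTT/BSA buffer.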

Gal4-RORγ-LBD = molecular target: T2, Gal4-RORγ-LBD (Homo sapiens, UniProt P51449); test: Gal4-RORγ Luciferase Reporter Assay in HEK-293T Cells; format: cell-based; settings: HEK-293 cells
T2 construct: expressed in transfected cells; host or cells: HEK-293 cells (pcDNA3.1neo plasmid)
T2 sequence (P51449 269-508 limits assumed): T1 sequence (P51449 269-508 limits assumed)
Outline: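 Luminescence read-out (One-Glo, 10 min RT) after overnight compound exposure at 37 °C in HEK-293 cells carrying Gal4-RORγ-LBD plus a Gal4-luciferase reporter, in the presence of 2 μM ursolic acid. Max Response is the upper plateau from a 4-parameter logistic fit, normalized to untreated signal = 100.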

[1] = luciferase reporter, with 2 μM ursolic acid

Row | EC50 (RORγ-LBD) [nM] | EC50 (Gal4-RORγ-LBD; [1]) [nM] | EC50 (Gal4-RORγ-LBD; 2 μM ursolic acid) [nM] | SMILES | TR-FRET Assay Max Response (RORγ-LBD) | Gal4-RORγ Assay Max Response (Gal4-RORγ-LBD; [1]) | Gal4-RORγ Assay Max Response (Gal4-RORγ-LBD; 2 μM ursolic acid)
1 | < 500 | < 500 | – | CC(C)c1cccc(S(=O)(=O)N2C[C@H](CNC(=O)C(C)(C)O)Oc3ccc(-c4cccc(N(C)C)n4)cc32)c1 [Compound 30J, (S)-N-((6-(6-(dimethylamino)-pyridin-2-yl)-4-((3-isopropylphenyl)sulfonyl)-3,4-dihydro-2H-benzo[b][1,4]oxazin-2-yl)methyl)-2-hydroxy-2-methylpropanamide] | **** (The symbol “****” indicates a value greater than 200) | * (The symbol “*” indicates a value in the range of 25 to 90) | –
2 | < 500 | < 500 | – | O=C(O)C1CCN(C(=O)CC[C@H]2CN(S(=O)(=O)c3cccc(C(F)(F)F)c3)c3cc(-c4cccc(C(F)(F)F)n4)cc(F)c3O2)CC1 [Compound 23E, (S)-1-(3-(8-fluoro-4-((3-(trifluoromethyl)phenyl)sulfonyl)-6-(6-(trifluoromethyl)pyridin-2-yl)-3,4-dihydro-2H-benzo[b][1,4]oxazin-2-yl)propanoyl)piperidine-4-carboxylic acid] | **** (The symbol “****” indicates a value greater than 200) | ** (The symbol “**” indicates a value in the range of greater than 90 to 150) | –
3 | < 500 | < 500 | – | O=C(CC[C@H]1CN(S(=O)(=O)c2cccc(C(F)(F)F)c2)c2cc(-c3cccc(C(F)(F)F)n3)ccc2O1)N1CCS(=O)(=O)CC1 [Compound 23G, (S)-1-(1,1-dioxidothio-morpholino)-3-(4-((3-(trifluoro-methyl)phenyl)sulfonyl)-6-(6-(trifluoromethyl)pyridin-2-yl)-3,4-dihydro-2H-benzo[b][1,4]-oxazin-2-yl)propan-1-one] | **** (The symbol “****” indicates a value greater than 200) | ** (The symbol “**” indicates a value in the range of greater than 90 to 150) | –
4 | < 500 | < 500 | – | O=C(O)CC[C@H]1CN(S(=O)(=O)c2cccc(C(F)(F)F)c2)c2cc(-c3cc(C(F)(F)F)ccc3F)ccc2O1 [Compound 2O, (S)-3-(6-(2-fluoro-5-(trifluoromethyl)phenyl)-4-((3-(trifluoromethyl)phenyl)-sulfonyl)-3,4-dihydro-2H-benzo[b][1,4]oxazin-2-yl)propanoic acid] | *** (The symbol “***” indicates a value in the range of greater than 150 to 200) | *** (The symbol “***” indicates a value in the range of greater than 150 to 200) | –
5 | < 500 | < 500 | – | O=C(O)CCNC(=O)CC[C@H]1CN(S(=O)(=O)c2cccc(C(F)(F)F)c2)c2cc(-c3cccc(Cl)c3)ccc2O1 [Compound 23D, (S)-3-(3-(6-(3-chlorophenyl)-4-((3-(trifluoromethyl)phenyl)-sulfonyl)-3,4-dihydro-2H-benzo[b][1,4]oxazin-2-yl)propanamido)propanoic acid] | *** (The symbol “***” indicates a value in the range of greater than 150 to 200) | ** (The symbol “**” indicates a value in the range of greater than 90 to 150) | –

The remaining lines, values behind:

Row | SMILES | EC50 (RORγ-LBD) [nM] | EC50 (Gal4-RORγ-LBD; [1]) [nM] | EC50 (Gal4-RORγ-LBD; 2 μM ursolic acid) [nM] | TR-FRET Assay Max Response (RORγ-LBD) | Gal4-RORγ Assay Max Response (Gal4-RORγ-LBD; [1]) | Gal4-RORγ Assay Max Response (Gal4-RORγ-LBD; 2 μM ursolic acid)
6 | Cn1ccc(C(=O)NC[C@H]2CN(S(=O)(=O)c3cccc(C(F)(F)F)c3)c3cc(-c4cc(F)ccc4F)ccc3O2)n1 [Compound 30AI, (S)-N-((6-(2,5-difluorophenyl)-4-((3-(trifluoromethyl)phenyl)-sulfonyl)-3,4-dihydro-2H-benzo[b][1,4]oxazin-2-yl)methyl)-1-methyl-1H-pyrazole-3-carboxamide] | < 500 | < 500 | – | *** (The symbol “***” indicates a value in the range of greater than 150 to 200) | ** (The symbol “**” indicates a value in the range of greater than 90 to 150) | –
7 | O=C(O)[C@]1(C[C@H]2CN(S(=O)(=O)c3cccc(C(F)(F)F)c3)c3cc(-c4cc(F)cc(OC(F)F)c4)ccc3O2)CCNC1=O [Compound 73, (S)-3-(((S)-6-(3-(difluoromethoxy)-5-fluorophenyl)-4-((3-(trifluoromethyl)phenyl)sulfonyl)-3,4-dihydro-2H-benzo[b][1,4]oxazin-2-yl)methyl)-2-oxopyrrolidine-3-carboxylic acid] | < 500 | – | < 500 | *** (The symbol “***” indicates a value in the range of greater than 150 to 200) | – | ** (The symbol “**” indicates a value in the range of greater than 90 to 150)
8 | CC(=O)N[C@H]1C[C@@](C[C@H]2CN(S(=O)(=O)c3cccc(C(F)(F)F)c3)c3cc(-c4cc(F)cc(OC(F)F)c4)ccc3O2)(C(=O)O)C1 [Compound 84, (1s,3R)-3-acetamido-1-(((S)-6-(3-(difluoromethoxy)-5-fluorophenyl)-4-((3-(trifluoromethyl)phenyl)sulfonyl)-3,4-dihydro-2H-benzo[b][1,4]oxazin-2-yl)methyl)cyclobutane-1-carboxylic acid] | < 500 | – | 500 to 5000 | ** (The symbol “**” indicates a value in the range of greater than 90 to 150) | – | * (The symbol “*” indicates a value in the range of 25 to 90)
9 | N#CCC(=O)NC[C@H]1CN(S(=O)(=O)c2cccc(C(F)(F)F)c2)c2cc(-c3cc(F)ccc3F)ccc2O1 [Compound 30AP, (S)-2-cyano-N-((6-(2,5-difluoro-phenyl)-4-((3-(trifluoromethyl)-phenyl)sulfonyl)-3,4-dihydro-2H-benzo[b][1,4]oxazin-2-yl)methyl)acetamide] | < 500 | < 500 | – | *** (The symbol “***” indicates a value in the range of greater than 150 to 200) | * (The symbol “*” indicates a value in the range of 25 to 90) | –
10 | CC(C)(C[C@H]1CN(S(=O)(=O)c2cccc(C(F)(F)F)c2)c2cc(-c3c(F)ccc(F)c3F)ccc2O1)C(=O)O [Compound 32BM, (S)-2,2-dimethyl-3-(4-((3-(trifluoromethyl)phenyl)sulfonyl)-6-(2,3,6-trifluorophenyl)-3,4-dihydro-2H-benzo[b][1,4]oxazin-2-yl)propanoic acid] | < 500 | – | < 500 | *** (The symbol “***” indicates a value in the range of greater than 150 to 200) | – | ** (The symbol “**” indicates a value in the range of greater than 90 to 150)
11 | CN(C)c1cncc(-c2ccc3c(c2)N(S(=O)(=O)c2cccc(C(F)(F)F)c2)C[C@H](CCC(=O)O)O3)n1 [Compound 4AL, (S)-3-(6-(6-(dimethylamino)-pyrazin-2-yl)-4-((3-(trifluoromethyl)phenyl)-sulfonyl)-3,4-dihydro-2H-benzo[b][1,4]oxazin-2-yl)propanoic acid] | < 500 | < 500 | – | **** (The symbol “****” indicates a value greater than 200) | ** (The symbol “**” indicates a value in the range of greater than 90 to 150) | –
12 | CCOc1cccc(-c2ccc3c(c2)N(S(=O)(=O)c2cccc(C(F)(F)F)c2)C[C@H](CCC(=O)O)O3)c1 [Compound 2AS, (S)-3-(6-(3-ethoxyphenyl)-4-((3-(trifluoromethyl)phenyl)-sulfonyl)-3,4-dihydro-2H-benzo[b][1,4]-oxazin-2-yl)propanoic acid] | < 500 | 500 to 5000 | – | **** (The symbol “****” indicates a value greater than 200) | ** (The symbol “**” indicates a value in the range of greater than 90 to 150) | –
13 | Cc1ncccc1-c1ccc2c(c1)N(S(=O)(=O)c1cccc(C(F)(F)F)c1)C[C@H](CCC(=O)O)O2 [Compound 4AE, (S)-3-(6-(2-methylpyridin-3-yl)-4-((3-(trifluoromethyl)-phenyl)sulfonyl)-3,4-dihydro-2H-benzo[b][1,4]oxazin-2-yl)propanoic acid] | < 500 | 500 to 5000 | – | **** (The symbol “****” indicates a value greater than 200) | ** (The symbol “**” indicates a value in the range of greater than 90 to 150) | –
14 | O=C(O)CC[C@H]1CN(S(=O)(=O)c2cccc(C(F)(F)F)c2)c2cc(-c3cccnc3-c3ccccc3)ccc2O1 [Compound 4AD, (S)-3-(6-(2-phenylpyridin-3-yl)-4-((3-(trifluoromethyl)-phenyl)sulfonyl)-3,4-dihydro-2H-benzo[b][1,4]oxazin-2-yl)propanoic acid] | > 10000 | > 10000 | – | – | – | –
15 | COc1cc(S(=O)(=O)N2C[C@H](CCc3n[nH]c(=O)o3)Oc3ccc(-c4cc(F)ccc4F)cc32)ccc1F [Compound 28J, (S)-5-(2-(6-(2,5-difluorophenyl)-4-((4-fluoro-3-methoxyphenyl)-sulfonyl)-3,4-dihydro-2H-benzo[b][1,4]oxazin-2-yl)ethyl)-1,3,4-oxadiazol-2(3H)-one] | < 500 | < 500 | – | **** (The symbol “****” indicates a value greater than 200) | ** (The symbol “**” indicates a value in the range of greater than 90 to 150) | –
